In patent US5736529A, “Use of NAD-related compounds in the treatment of neural trauma to inhibit neurodegeneration” (priority 1996, dated 1998):

Assays:
[1] = tested on: NAD; details: 110 mg/kg ICV; 8 month old mice
Procedure: Male C57 B 1/6 mice, 8 months old, were treated ICV with tBuOOH (110 mg/kg) and maintained for 2, 5, 20 or 120 minutes. Anesthetized tBuOOH treated mice were immersed in liquid nitrogen to freeze their brains. The frozen brains were removed and dissected over dry ice. The brain regions were homogenized and analyzed by HPLC to determine NAD, NADH, NADP and NADPH levels as described previously. It is very important to stabilize the pyridine dinucleotides to prevent artifactual oxidation. NAD and NADP were stabilized by homogenization of brain regions in a cyanide containing solution. The cyanide reacts with the compounds forming cyano adducts that are stable. NADPH and NADH were stabilized by homogenizing brain regions in basic solution. NADPH and NADH are stable in base. Fortunately, the cyanide reaction proceeds optimally in base. Therefore, use of basic cyanide solutions during the homogenization produced optimal stabilization of NAD, NADP, NADH and NADPH. Following extraction with chloroform, centrifugation at 12,000 g for 5 minutes at 5° C., and filtration through 0.45μ positively charged nylon filters to remove DNA, the supernatants were injected onto a reverse phase HPLC column ("REXCHROME" ODS 5μ, Regis, Morton Grove, Ill.). Fluorescence detection (330 nm, excitation, 460 nm emission) was used to detect fluorescent NADH, NADPH and the cyano adducts of NAD and NADP.

[2] = tested on: DNA in brain sections of C57BL/6 mice; assay: DNA fragmentation in brain regions upon treatment with tBuOOH (Tables 1 and 2); type: in vivo, mouse (C57BL/6); details: for Fraction of damaged DNA, Cerebellum / Fraction of damaged DNA, Cortex / Fraction of damaged DNA, Hippo / Fraction of damaged DNA, Midbrain / Fraction of damaged DNA, Striatum / Fraction of damaged DNA, Thalamus: mean ± SD
Procedure: In general male C57BL/6 mice (2, 8 or 24 months old) were anesthetized with ketamine and xylazine (200 and 2 mg/kg, ip). They were injected ICV with tBuOOH in doses of approximately 22 or 110 mg/kg. This amounts to 1 or 5 μl of a 70% solution of tBuOOH injected slowly into a lateral cerebral ventricle. A mouse brain weighs about 400 mg. […] Animals recovered from anesthesia about 30 minutes or so after tBuOOH administration. […] Low dose mice survived for 48 hours or more.
Young adult (2 month old) and mature (8 month old) C57BL/6 mice were divided into 7 groups with 8 animals in the control group and 4 animals in each of the other groups for both the age groups. A dose of 109.7 mg/kg of tBuOOH was administered ICV, to three groups of mice of both age groups. See Tables 1 and 2. tBuOOH was injected ICV following the technique described in Popick^2. The experiments ended 2 minutes, 5 minutes and 20 minutes after injection of tBuOOH. In the second set of experiments, 21.9 mg/kg of the toxin was administered ICV in the other three groups of mice with experimental durations of 12 hours, 24 hours and 48 hours respectively. The controls were treated with saline rather than tBuOOH.
The brains were removed after the allotted time period and sectioned immediately into the following sections: cortex, striatum, hippocampus, thalamus, midbrain and cerebellum.

[3] = in vivo; cited from earlier work
[4] = 2 month old mice, 21.9 mg/kg ICV, 12 hours
[5] = 2 month old mice, 21.9 mg/kg ICV, 24 hours
[6] = 2 month old mice, 21.9 mg/kg ICV, 48 hours
[7] = 2 month old mice, 109.7 mg/kg ICV, 2 min
[8] = 2 month old mice, 109.7 mg/kg ICV, 2 min, * p<0.05 vs control
[9] = 2 month old mice, 109.7 mg/kg ICV, 5 min
[10] = 2 month old mice, 109.7 mg/kg ICV, 20 min
[11] = 2 month old mice, 109.7 mg/kg ICV, 20 min, * p<0.05 vs control
[12] = 8 month old mice, 21.9 mg/kg ICV, 12 hours
[13] = 8 month old mice, 21.9 mg/kg ICV, 24 hours
[14] = 8 month old mice, 21.9 mg/kg ICV, 48 hours
[15] = 8 month old mice, 109.7 mg/kg ICV, 2 min
[16] = 8 month old mice, 109.7 mg/kg ICV, 5 min
[17] = 8 month old mice, 109.7 mg/kg ICV, 20 min
[18] = 8 month old mice, 109.7 mg/kg ICV, 20 min, * p<0.05 vs control

In the case of `CC(C)(C)OO` [tBuOOH, t-butylhydroperoxide], the “NAD levels after tBuOOH” value [1] is reported as “slowly and partially depleted”, the “effect on cortex DNA” value ([2]; 2 and 8 month old mice, high or low dose) is reported as “not affected” and the “DNA damage in all other brain sections” value ([2]; 2 and 8 month old mice, high or low dose or both) is reported as “some vulnerability”. For the same molecule, the “Fraction of damaged DNA, Cerebellum” value [2, 4] was 0.65 ± 0.19 per gram of tissue, the “Fraction of damaged DNA, Cortex” value [2, 4] was 0.53 ± 0.16 per gram of tissue and the “Fraction of damaged DNA, Hippo” value [2, 4] was 0.40 ± 0.16 per gram of tissue. The “Fraction of damaged DNA, Midbrain” value [2, 4] was 0.83 ± 0.58 per gram of tissue, the “Fraction of damaged DNA, Striatum” value [2, 4] was 1.13 ± 0.49 per gram of tissue and the “Fraction of damaged DNA, Thalamus” value [2, 4] was 1.29 ± 0.39 per gram of tissue. For the same molecule, the “Fraction of damaged DNA, Cerebellum” value [2, 5] was 0.93 ± 0.36 per gram of tissue, the “Fraction of damaged DNA, Cortex” value [2, 5] was 0.47 ± 0.13 per gram of tissue and the “Fraction of damaged DNA, Hippo” value [2, 5] was 0.31 ± 0.04 per gram of tissue. For the same molecule, the “Fraction of damaged DNA, Midbrain” value [2, 5] was 1.23 ± 0.12 per gram of tissue, the “Fraction of damaged DNA, Striatum” value [2, 5] was 1.16 ± 0.31 per gram of tissue and the “Fraction of damaged DNA, Thalamus” value [2, 5] was 1.44 ± 0.76 per gram of tissue. The “Fraction of damaged DNA, Cortex” value [2, 6] was 0.73 ± 0.03 per gram of tissue, the “Fraction of damaged DNA, Hippo” value [2, 6] was 0.50 ± 0.09 per gram of tissue and the “Fraction of damaged DNA, Midbrain” value [2, 6] was 1.24 ± 0.13 per gram of tissue. The “Fraction of damaged DNA, Striatum” value [2, 6] was 1.66 ± 0.33 per gram of tissue, the “Fraction of damaged DNA, Thalamus” value [2, 6] was 1.25 ± 0.14 per gram of tissue and the “Fraction of damaged DNA, Cerebellum” value ([2]; 2 month old mice, 21.9 mg/kg ICV, 48 hours, * p<0.05 vs control, 1 p<0.05 vs other age group) was 1.29 ± 0.12 per gram of tissue. The “significant damage in the hippocampus” value ([2]; 2 month old mice, 109.7 mg/kg) was “significant damage was seen 2 minutes and 20 minutes after injection”, the “Fraction of damaged DNA, Cerebellum” value [2, 7] was 1.17 ± 0.25 per gram of tissue and the “Fraction of damaged DNA, Cortex” value [2, 7] was 0.84 ± 0.33 per gram of tissue. For the same molecule, the “Fraction of damaged DNA, Striatum” value [2, 7] was 2.00 ± 0.45 per gram of tissue, the “Fraction of damaged DNA, Hippo” value [2, 8] was 0.66 ± 0.09 per gram of tissue and the “Fraction of damaged DNA, Midbrain” value [2, 8] was 2.48 ± 1.02 per gram of tissue. The “Fraction of damaged DNA, Thalamus” value [2, 8] was 2.66 ± 0.33 per gram of tissue, the “Fraction of damaged DNA, Cerebellum” value [2, 9] was 0.88 ± 0.20 per gram of tissue and the “Fraction of damaged DNA, Cortex” value [2, 9] was 0.82 ± 0.23 per gram of tissue. For the same molecule, the “Fraction of damaged DNA, Hippo” value [2, 9] was 0.41 ± 0.05 per gram of tissue, the “Fraction of damaged DNA, Midbrain” value [2, 9] was 1.71 ± 0.77 per gram of tissue and the “Fraction of damaged DNA, Striatum” value [2, 9] was 1.66 ± 0.52 per gram of tissue. For the same molecule, the “Fraction of damaged DNA, Thalamus” value ([2]; 2 month old mice, 109.7 mg/kg ICV, 5 min, * p<0.05 vs control) was 2.85 ± 0.83 per gram of tissue, the “Fraction of damaged DNA, Cortex” value [2, 10] was 0.76 ± 0.26 per gram of tissue and the “Fraction of damaged DNA, Thalamus” value [2, 10] was 2.46 ± 0.65 per gram of tissue. The “Fraction of damaged DNA, Cerebellum” value [2, 11] was 1.39 ± 0.51 per gram of tissue, the “Fraction of damaged DNA, Hippo” value [2, 11] was 0.66 ± 0.14 per gram of tissue and the “Fraction of damaged DNA, Midbrain” value [2, 11] was 3.09 ± 0.28 per gram of tissue. For the same molecule, the “Fraction of damaged DNA, Striatum” value [2, 11] was 2.56 ± 0.49 per gram of tissue, the “hippocampus damage at 5 minutes compared with other age group” value ([2]; 2 month old vs 8 month old mice, 109.7 mg/kg) was “significantly lower” and the “significant damage in the cerebellum, early” value ([2]; 8 month old mice after 5 and 20 minutes, 2 month old mice after 20 minutes) was “Significant damage was observed after 5 minutes and 20 minutes, in the case of the 8 month old cerebellum and after 20 minutes in the 2 month old cerebellum”. For the same molecule, the “Fraction of damaged DNA, Cerebellum” value [2, 12] was 0.69 ± 0.15 per gram of tissue, the “Fraction of damaged DNA, Cortex” value [2, 12] was 0.61 ± 0.10 per gram of tissue and the “Fraction of damaged DNA, Hippo” value [2, 12] was 0.46 ± 0.17 per gram of tissue. The “Fraction of damaged DNA, Midbrain” value [2, 12] was 0.76 ± 0.24 per gram of tissue, the “Fraction of damaged DNA, Striatum” value [2, 12] was 1.17 ± 0.33 per gram of tissue and the “Fraction of damaged DNA, Thalamus” value [2, 12] was 1.08 ± 0.30 per gram of tissue. The “Fraction of damaged DNA, Cerebellum” value [2, 13] was 0.67 ± 0.16 per gram of tissue, the “Fraction of damaged DNA, Cortex” value [2, 13] was 0.65 ± 0.13 per gram of tissue and the “Fraction of damaged DNA, Hippo” value [2, 13] was 0.46 ± 0.05 per gram of tissue. For the same molecule, the “Fraction of damaged DNA, Midbrain” value [2, 13] was 1.05 ± 0.35 per gram of tissue, the “Fraction of damaged DNA, Striatum” value [2, 13] was 0.99 ± 0.06 per gram of tissue and the “Fraction of damaged DNA, Thalamus” value [2, 13] was 0.75 ± 0.27 per gram of tissue. For the same molecule, the “Fraction of damaged DNA, Cortex” value [2, 14] was 0.69 ± 0.10 per gram of tissue, the “Fraction of damaged DNA, Hippo” value [2, 14] was 0.55 ± 0.06 per gram of tissue and the “Fraction of damaged DNA, Midbrain” value [2, 14] was 1.05 ± 0.13 per gram of tissue. For the same molecule, the “Fraction of damaged DNA, Striatum” value [2, 14] was 1.15 ± 0.12 per gram of tissue, the “Fraction of damaged DNA, Thalamus” value [2, 14] was 1.65 ± 0.13 per gram of tissue and the “Fraction of damaged DNA, Cerebellum” value ([2]; 8 month old mice, 21.9 mg/kg ICV, 48 hours, * p<0.05 vs control) was 1.01 ± 0.11 per gram of tissue. The “significant damage in the hippocampus” value ([2]; 8 month old mice, 109.7 mg/kg) was “significant damage was seen within 5 minutes”, the “Fraction of damaged DNA, Cerebellum” value [2, 15] was 0.80 ± 0.09 per gram of tissue and the “Fraction of damaged DNA, Cortex” value [2, 15] was 0.87 ± 0.17 per gram of tissue. For the same molecule, the “Fraction of damaged DNA, Hippo” value [2, 15] was 0.69 ± 0.14 per gram of tissue, the “Fraction of damaged DNA, Midbrain” value [2, 15] was 2.24 ± 0.66 per gram of tissue and the “Fraction of damaged DNA, Striatum” value [2, 15] was 1.56 ± 0.27 per gram of tissue. For the same molecule, the “Fraction of damaged DNA, Thalamus” value ([2]; 8 month old mice, 109.7 mg/kg ICV, 2 min, * p<0.05 vs control) was 2.29 ± 0.78 per gram of tissue, the “Fraction of damaged DNA, Cortex” value [2, 16] was 0.67 ± 0.16 per gram of tissue and the “Fraction of damaged DNA, Midbrain” value [2, 16] was 1.93 ± 0.26 per gram of tissue. For the same molecule, the “Fraction of damaged DNA, Striatum” value [2, 16] was 1.63 ± 0.47 per gram of tissue, the “Fraction of damaged DNA, Thalamus” value [2, 16] was 1.86 ± 0.58 per gram of tissue and the “Fraction of damaged DNA, Cerebellum” value ([2]; 8 month old mice, 109.7 mg/kg ICV, 5 min, * p<0.05 vs control) was 1.15 ± 0.12 per gram of tissue. The “Fraction of damaged DNA, Hippo” value ([2]; 8 month old mice, 109.7 mg/kg ICV, 5 min, * p<0.05 vs control, 1 p<0.05 vs other age group) was 0.81 ± 0.20 per gram of tissue, the “Fraction of damaged DNA, Cortex” value [2, 17] was 0.70 ± 0.19 per gram of tissue and the “Fraction of damaged DNA, Hippo” value [2, 17] was 0.67 ± 0.15 per gram of tissue. The “Fraction of damaged DNA, Cerebellum” value [2, 18] was 1.46 ± 0.36 per gram of tissue, the “Fraction of damaged DNA, Midbrain” value [2, 18] was 2.98 ± 0.85 per gram of tissue and the “Fraction of damaged DNA, Striatum” value [2, 18] was 2.38 ± 0.41 per gram of tissue. For the same molecule, the “Fraction of damaged DNA, Thalamus” value [2, 18] was 2.77 ± 0.30 per gram of tissue, the “significant DNA damage in the thalamus” value ([2]; both age groups) was “significant DNA damage was found after 2 minutes” and the “significant damage in the midbrain” value ([2]; both age groups) was “significant damage was found after 20 minutes”. For the same molecule, the “significant damage in the cerebellum at 48 hours” value ([2]; both age groups, 2 month old significantly greater than 8 month old) was “significant damage was observed in the cerebellum at the end of 48 hours”, the “significant DNA damage in the striatum” value ([2]; both age groups, high dose) was “significant DNA damage was found only after 20 minutes” and the brain permeation [3] was “readily permeate throughout the brain”.
